Assay results published in patent US20110086759A1, “CHEMICAL COMPOUNDS” (SYNGENTA CROP PROTECTION, INC., priority 2007, published 2011).

Experiments:
Assay type in all cases: in vivo
[1] = system: Setaria faberi (SETFA); test: Pre-emergence biological efficacy, glasshouse pot test; conditions: 312 h, pre-emergence, 1,000 g/ha, evaluated after 13 days (100=total damage; 0=no damage), read-out: Percentage damage SETFA
How it was run: (§1)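 Visual phytotoxicity (0 no damage, 100 total damage) assessed 13 d after treatment. Soil-sown pots sprayed one day post-sowing; dose 1000 or 250 g/ha; formulation in acetone/water 50:50, 0.5% Tween 20.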

[2] = system: Amaranthus retoflexus (AMARE); test: as above; conditions: Amaranthus retroflexus, 312 h; pre-emergence, 1,000 g/ha, evaluated after 13 days (100=total damage; 0=no damage); read-out: Percentage damage AMARE
How it was run: as §1

[3] = system: Alopecurus myosuroides (ALOMY); test: as above; conditions: 312 h, pre-emergence, 1,000 g/ha, evaluated after 13 days (100=total damage; 0=no damage), read-out: Percentage damage ALOMY
How it was run: as §1

[4] = system: Solanum nigrum (SOLNI); test: as above; conditions: 312 h, pre-emergence, 1,000 g/ha, evaluated after 13 days (100=total damage; 0=no damage), read-out: Percentage damage SOLNI
How it was run: as §1

[5] = system: Echinochloa crus-galli (ECHCG); test: as above; conditions: 312 h, pre-emergence, 1,000 g/ha, evaluated after 13 days (100=total damage; 0=no damage), read-out: Percentage damage ECHCG
How it was run: as §1

[6] = system: Ipomea hederaceae (IPOHE); test: as above; conditions: Ipomoea hederacea, 312 h; pre-emergence, 1,000 g/ha, evaluated after 13 days (100=total damage; 0=no damage); read-out: Percentage damage IPOHE
How it was run: as §1

[7] = system: Setaria faberi (SETFA); test: Post-emergence biological efficacy, glasshouse pot test; conditions: 312 h, post-emergence, 1,000 g/ha, evaluated after 13 days (100=total damage; 0=no damage), read-out: Percentage damage caused to weed species, SETFA
How it was run: (§2)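 Pot-grown weeds were sprayed 8 days after sowing with test compound in acetone/water (50:50) with 0.5% Tween 20 at 1000 or 250 g/ha. Glasshouse at 24/16° C day/night, 14 h light, 65% humidity. Damage scored 0-100 (100 = total damage) after 13 days.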

[8] = system: Amaranthus retoflexus (AMARE); test: as above; conditions: Amaranthus retroflexus, 312 h; post-emergence, 1,000 g/ha, evaluated after 13 days (100=total damage; 0=no damage); read-out: Percentage damage caused to weed species, AMARE
How it was run: as §2

[9] = system: Alopecurus myosuroides (ALOMY); test: as above; conditions: 312 h, post-emergence, 1,000 g/ha, evaluated after 13 days (100=total damage; 0=no damage), read-out: Percentage damage caused to weed species, ALOMY
How it was run: as §2

[10] = system: Solanum nigrum (SOLNI); test: as above; conditions: 312 h, post-emergence, 1,000 g/ha, evaluated after 13 days (100=total damage; 0=no damage), read-out: Percentage damage caused to weed species, SOLNI
How it was run: as §2

[11] = system: Echinochloa crus-galli (ECHCG); test: as above; conditions: 312 h, post-emergence, 1,000 g/ha, evaluated after 13 days (100=total damage; 0=no damage), read-out: Percentage damage caused to weed species, ECHCG
How it was run: as §2

[12] = system: Ipomea hederaceae (IPOHE); test: as above; conditions: Ipomoea hederacea, 312 h; post-emergence, 1,000 g/ha, evaluated after 13 days (100=total damage; 0=no damage); read-out: Percentage damage caused to weed species, IPOHE
How it was run: as §2

COC(=O)c1nc(C2CC2)nc(NC2(/C=C/c3ccc(C)cc3)CC2)c1Cl [Compound 4-25, 5-Chloro-2-cyclopropyl-6-methoxycarbonyl-4-{1-[2-(4-methylphenyl)-ethenyl]-cyclopropylamino}-pyrimidine]
pest or weed control at 1000 g/ha [1]: 0%
pest or weed control at 1000 g/ha [2]: 100%
pest or weed control at 1000 g/ha [3]: 10%
pest or weed control at 1000 g/ha [4]: 60%
pest or weed control at 1000 g/ha [5]: 10%
pest or weed control at 1000 g/ha [6]: 30%
pest or weed control at 1000 g/ha [7]: 60%
pest or weed control at 1000 g/ha [8]: 100%
pest or weed control at 1000 g/ha [9]: 40%
pest or weed control at 1000 g/ha [10]: 80%
pest or weed control at 1000 g/ha [11]: 60%
pest or weed control at 1000 g/ha [12]: 100%

COC(=O)c1nc(C2CC2)nc(NC2(/C=C/c3c(F)cccc3F)CC2)c1Cl [Compound 4-26, 5-Chloro-2-cyclopropyl-4-{1-[2-(2,6-difluoro-phenyl)ethenyl]-cyclopropylamino}-6-methoxy-carbonylpyrimidine]
pest or weed control at 1000 g/ha [1]: 0%
pest or weed control at 1000 g/ha [2]: 20%
pest or weed control at 1000 g/ha [3]: 10%
pest or weed control at 1000 g/ha [4]: 20%
pest or weed control at 1000 g/ha [5]: 0%
pest or weed control at 1000 g/ha [6]: 50%
pest or weed control at 1000 g/ha [7]: 60%
pest or weed control at 1000 g/ha [8]: 100%
pest or weed control at 1000 g/ha [9]: 20%
pest or weed control at 1000 g/ha [10]: 70%
pest or weed control at 1000 g/ha [11]: 20%
pest or weed control at 1000 g/ha [12]: 90%

COC(=O)c1nc(C2CC2)nc(NC2(/C=C/c3ccccc3F)CC2)c1Cl [Compound 4-27, 5-Chloro-2-cyclopropyl-4-{1-[2-(2-fluorophenyl)-ethenyl]-cyclo-propylamino}-6-methoxycarbonyl-pyrimidine]
pest or weed control at 1000 g/ha [1]: 0%
pest or weed control at 1000 g/ha [2]: 40%
pest or weed control at 1000 g/ha [3]: 10%
pest or weed control at 1000 g/ha [4]: 10%
pest or weed control at 1000 g/ha [5]: 0%
pest or weed control at 1000 g/ha [6]: 80%
pest or weed control at 1000 g/ha [7]: 70%
pest or weed control at 1000 g/ha [8]: 100%
pest or weed control at 1000 g/ha [9]: 10%
pest or weed control at 1000 g/ha [10]: 80%
pest or weed control at 1000 g/ha [11]: 60%
pest or weed control at 1000 g/ha [12]: 100%

COC(=O)c1nc(C2CC2)nc(NC2(/C=C/c3ccc(Cl)cc3Cl)CC2)c1Cl [Compound 4-28, 5-Chloro-2-cyclopropyl-4-{1-[2-(2,4-dichloro-phenyl)ethenyl]-cyclopropyl-amino}-6-methoxy-carbonylpyrimidine]
pest or weed control at 1000 g/ha [1]: 10%
pest or weed control at 1000 g/ha [2]: 90%
pest or weed control at 1000 g/ha [3]: 10%
pest or weed control at 1000 g/ha [4]: 40%
pest or weed control at 1000 g/ha [5]: 0%
pest or weed control at 1000 g/ha [6]: 70%
pest or weed control at 1000 g/ha [7]: 50%
pest or weed control at 1000 g/ha [8]: 100%
pest or weed control at 1000 g/ha [9]: 10%
pest or weed control at 1000 g/ha [10]: 80%
pest or weed control at 1000 g/ha [11]: 30%
pest or weed control at 1000 g/ha [12]: 100%

COC(=O)c1nc(C2CC2)nc(NC2(/C=C/c3cccc(Cl)c3Cl)CC2)c1Cl [Compound 4-29, 5-Chloro-2-cyclopropyl-4-{1-[2-(2,3-dichloro-phenyl)ethenyl]-cyclopropylamino}-6-methoxycarbonyl-pyrimidine]
pest or weed control at 1000 g/ha [1]: 10%
pest or weed control at 1000 g/ha [2]: 30%
pest or weed control at 1000 g/ha [3]: 10%
pest or weed control at 1000 g/ha [4]: 30%
pest or weed control at 1000 g/ha [5]: 0%
pest or weed control at 1000 g/ha [6]: 70%
pest or weed control at 1000 g/ha [7]: 60%
pest or weed control at 1000 g/ha [8]: 90%
pest or weed control at 1000 g/ha [9]: 10%
pest or weed control at 1000 g/ha [10]: 100%
pest or weed control at 1000 g/ha [11]: 30%
pest or weed control at 1000 g/ha [12]: 100%

COC(=O)c1nc(C2CC2)nc(NC2(/C=C/c3cccc(Cl)c3)CC2)c1Cl [Compound 4-30, 5-Chloro-4-{1-[2-(3-chlorophenyl)-etenyl]-cyclopropylamino}-2-cyclopropyl-6-methoxycarbonyl-pyrimidine]
pest or weed control at 1000 g/ha [1]: 10%
pest or weed control at 1000 g/ha [2]: 20%
pest or weed control at 1000 g/ha [3]: 0%
pest or weed control at 1000 g/ha [4]: 0%
pest or weed control at 1000 g/ha [5]: 0%
pest or weed control at 1000 g/ha [6]: 40%
pest or weed control at 1000 g/ha [7]: 60%
pest or weed control at 1000 g/ha [8]: 100%
pest or weed control at 1000 g/ha [9]: 10%
pest or weed control at 1000 g/ha [10]: 70%
pest or weed control at 1000 g/ha [11]: 30%
pest or weed control at 1000 g/ha [12]: 100%

COC(=O)c1nc(C2CC2)nc(NC2(/C=C/c3ccc(F)cc3F)CC2)c1Cl [Compound 4-31, 5-Chloro-2-cyclopropyl-4-{1-[2-(2,4-difluoro-phenyl)-ethenyl]-cyclopropylamino}-6-methoxy-carbonylpyrimidine]
pest or weed control at 1000 g/ha [1]: 0%
pest or weed control at 1000 g/ha [2]: 80%
pest or weed control at 1000 g/ha [3]: 0%
pest or weed control at 1000 g/ha [4]: 20%
pest or weed control at 1000 g/ha [5]: 0%
pest or weed control at 1000 g/ha [6]: 70%
pest or weed control at 1000 g/ha [7]: 80%
pest or weed control at 1000 g/ha [8]: 100%
pest or weed control at 1000 g/ha [9]: 10%
pest or weed control at 1000 g/ha [10]: 90%
pest or weed control at 1000 g/ha [11]: 30%
pest or weed control at 1000 g/ha [12]: 80%

COC(=O)c1nc(C2CC2)nc(NC2CCC2)c1Cl [Compound 4-32, 5-Chloro-4-cyclobutylamino-2-cyclopropyl-6-methoxycarbonyl-pyrimidine]
pest or weed control at 1000 g/ha [1]: 80%
pest or weed control at 1000 g/ha [2]: 80%
pest or weed control at 1000 g/ha [3]: 50%
pest or weed control at 1000 g/ha [4]: 80%
pest or weed control at 1000 g/ha [5]: 50%
pest or weed control at 1000 g/ha [6]: 80%
pest or weed control at 1000 g/ha [7]: 90%
pest or weed control at 1000 g/ha [8]: 100%
pest or weed control at 1000 g/ha [9]: 50%
pest or weed control at 1000 g/ha [10]: 90%
pest or weed control at 1000 g/ha [11]: 70%
pest or weed control at 1000 g/ha [12]: 100%

COC(=O)c1nc(C2CC2)nc(NC2CCCC2)c1Cl [Compound 4-33, 5-Chloro-4-cyclopentylamino-2-cyclopropyl-6-methoxycarbonyl-pyrimidine]
pest or weed control at 1000 g/ha [1]: 10%
pest or weed control at 1000 g/ha [2]: 50%
pest or weed control at 1000 g/ha [3]: 0%
pest or weed control at 1000 g/ha [4]: 20%
pest or weed control at 1000 g/ha [5]: 20%
pest or weed control at 1000 g/ha [6]: 50%
pest or weed control at 1000 g/ha [7]: 70%
pest or weed control at 1000 g/ha [8]: 80%
pest or weed control at 1000 g/ha [9]: 30%
pest or weed control at 1000 g/ha [10]: 70%
pest or weed control at 1000 g/ha [11]: 60%
pest or weed control at 1000 g/ha [12]: 70%

COC(=O)c1nc(C2CC2)nc(NC2CCCC2O)c1Cl (stereo not drawn) [Compound 4-34, 5-Chloro-2-cyclopropyl-4-(2-hydroxycyclopentylamino)-6-methoxycarbonyl-pyrimidine]
pest or weed control at 1000 g/ha [1]: 50%
pest or weed control at 1000 g/ha [2]: 100%
pest or weed control at 1000 g/ha [3]: 30%
pest or weed control at 1000 g/ha [4]: 80%
pest or weed control at 1000 g/ha [5]: 20%
pest or weed control at 1000 g/ha [6]: 90%
pest or weed control at 1000 g/ha [7]: 60%
pest or weed control at 1000 g/ha [8]: 100%
pest or weed control at 1000 g/ha [9]: 20%
pest or weed control at 1000 g/ha [10]: 80%
pest or weed control at 1000 g/ha [11]: 60%
pest or weed control at 1000 g/ha [12]: 60%

COC(=O)c1nc(C2CC2)nc(NC2CCCCC2)c1Cl [Compound 4-35, 5-Chloro-4-cyclohexylamino-2-cyclopropyl-6-methoxycarbonyl-pyrimidine]
pest or weed control at 1000 g/ha [1]: 0%
pest or weed control at 1000 g/ha [2]: 0%
pest or weed control at 1000 g/ha [3]: 0%
pest or weed control at 1000 g/ha [4]: 0%
pest or weed control at 1000 g/ha [5]: 0%
pest or weed control at 1000 g/ha [6]: 0%
pest or weed control at 1000 g/ha [7]: 20%
pest or weed control at 1000 g/ha [8]: 30%
pest or weed control at 1000 g/ha [9]: 30%
pest or weed control at 1000 g/ha [10]: 40%
pest or weed control at 1000 g/ha [11]: 0%
pest or weed control at 1000 g/ha [12]: 60%
